Measurements from patent US11028111B2, “Compound for treating metabolic diseases and preparation method and use thereof” (Xi' An Biocare Pharma Ltd., priority 2017, dated 2021).

Tests used:
[1] = test system: 17α-Ethinylestradiol (E2-17α) induced cholestasis in rats; test: Bile discharge in 17α-ethinylestradiol (E2-17α) induced cholestasis in rats; assay type: in vivo, Sprague Dawley rats; details: for Bile discharge amount compared with the ursodeoxycholic acid group: 105 minutes after administration, UDCA 15 mg/kg; for Bile flow rate compared with the E2-17α group / Effect on ameliorating intrahepatic cholestasis, promoting bile excretion: E2-17α cholestasis rats; for Bile flow rate compared with the E2-17α group: P<0.05 vs E2-17α; for Effect on ameliorating intrahepatic cholestasis, promoting bile excretion: conclusion
Protocol: Preparation of 1.0% CMC-Na solution: 1 p CMC-Na powder was weighed and added to 100 mL (50° C.) of distilled water, the mixture was rapidly stirred with a stirrer for 1 hour to fully swell, thereby to obtain a 1% CMC-Na solution.
Preparation of E2-17α solution in propylene glycol: 54/0.98=56 mp of E2-17α was weighed, dissolved in […] of propane-1,2-diol, shaked by a vortexer for 1 hour, thereby to obtain a 7 mp/mL suspension of E2-17α.
(§1) 17α-Ethinylestradiol (E2-17α) was administered by subcutaneous injection into the neck for model establishment for 7 days. Meantime, the test compounds were suspended in a 1% CMC-Na solution and administered by intragastric administration for 7 days during the E2-17α modeling.
(§2) E2-17α in propylene glycol was administered to rats for 7 days to establish the model, and different test samples in CMC-Na solution were administered by intragastric administration. On the 8th day, 1 mL of rat fasting blood sample was collected for detection of serum biochemical indicators, and E2-17α in propylene glycol was continuously administered to establish the model, and different test samples CMC-Na solution were administered by intragastric administration. After 0.5 hours of administration on the 9th day, the rats were weighed and anesthetized with 10% urethane (10 mL/kg) via intraperitoneal injection. After anesthesia, the rat was fixed on a board. A midline abdominal incision was made from the upper acetabular area, and the incision was about 2 to 3 cm. The indoor temperature should be maintained during the experiment, the body temperature of the rats was maintained and bile outflow was promoted. Handle of ophthalmic forceps was used to turn the liver up and find the duodenum and stomach junction. A suture (size 0) was placed at the junction to reserve. On the duodenum, about 2 cm away from the pylorus, a thin tube with a yellow transparent tube perpendicular to the duodenum could be found passing through the pancreas, that is, the common bile duct. At the junction of the common bile duct and the duodenum, the common bile duct was separated by an ophthalmic curved forceps, but was careful not to break the small blood vessels around the bile duct and avoided stimulating the pancreatic tissue by hand. After the separation, two sutures were place, and the suture close to the intestine end was ligated, as a traction suture, ophthalmic scissors were used to obliquely cut a small opening in the wall of the tube, a prepared pancreatic juice collection tube was inserted into the small opening. A mixture of yellow bile and pancreatic juice flowed out immediately after the insertion. The tube was ligated and fixed, and this tube was used to collect bile. After completion of the intubation, the skin was sutured. The other end of the bile duct intubation was taken out, flowing out to a fixed 0.5 mL centrifuge tube. Bile was continuously collected 8 times once every 15 minutes, until 120 minutes.
After completion of the intubation, the skin was sutured to prevent water evaporation of the abdominal cavity. The other end of the bile duct intubation was taken out, and the bile flowed out to a fixed 0.5 mL collection tube. Bile was continuously collected 8 times once every 15 minutes for a total of 120 minutes. Before the experiment, the collection tube was accurately weighed using an analytical balance. After the bile was collected in the experiment, the total weight of the bile and the collection tube was weighed, and the weight of the bile in the tube was calculated by subtraction and converted to a volume based on 1 g/mL.
(§3) The data were analyzed using SPSS18.0 statistics software. Measurement data were compared between the two groups using the t test. Multiple groups of means were compared using one-way analysis of variance (ANOVA) and multiple comparisons between groups. Data mean±standard error (Mean±SEM.) or mean±standard deviation (Mean±SD.).

[2] = test system: 17α-Ethinylestradiol (E2-17α) induced cholestasis in rats; test: Serum ALT, AST, ALP in E2-17α induced cholestasis rats; assay type: in vivo, Sprague Dawley rats; details: for Serum ALP / Serum ALT / Serum AST: E2-17α cholestasis rats after intragastric administration, x ± s; for Values of ALT, AST, and ALP (serum): E2-17α cholestasis rats, in words
Protocol: as §1, §2
The blood sample was allowed to stand in a 37° C. water bath for 10 minutes, centrifuged at 3000 rpm (1368 g)×10 min, the serum was separated conventionally, dispensed and frozen at −20° C. for storage. The indicators to be detected in serum included ALT, AST, and ALP. The detection methods of the above indicators were all carried out in accordance with the relevant instructions of the kit.
as §3

[3] = test system: rat model of cirrhotic portal hypertension (TAA); test: Serum indicators (ALT, AST, ALP, ALB, γ-GT, TBA) in TAA cirrhotic portal hypertension rats; assay type: in vivo; details: for Serum ALT level / Serum AST level: P<0.05
Protocol: (§4) A rat model of cirrhotic portal hypertension was established by intraperitoneal injection of TAA. Except that the blank control group was intraperitoneally injected with saline, remaining animals were intraperitoneally injected (i.p.) with 10% thioacetamide (TAA) in saline solution to establish the model. The dose was 200 mg/Kg, and the administration volume was 2 mL/Kg. All experimental animals were intraperitoneally injected with TAA or an equal volume of saline once every three days. Before each dose, the rat shaving beddings should be replaced by clean ones in advance. The body weight was measured once every two modeling administration. The body weight of the rats increased or decreased by 10% compared with the previous one, the dose of TAA increased or decreased by […] correspondingly. The administration was individualized to strictly control body weight change of each rat, which could effectively improve the success rate and uniformity of modeling.
(§5) The successfully modeled animals were randomly grouped, 12 rats per group, and 20 rats in the blank control group. Portal hypertension was induced by TAA in rats, and a portal hypertension model was established after 13 days. The test compound was administered once a day for 10 days. The specific groupings are shown as follows:
At the end of the administration, orbital blood was collected from the rats. The blood sample was placed in a 37° C. water bath for 10 minutes, centrifuged for 10 minutes at 3000 r/min (1370 g). Upper layer of the serum was taken and detected directly, or temporarily stored at −80° C., for serologic indicator measurement. After the blood samples were collected, the rats were fed with foods and water for 3 days.
1) 1.5 mL of orbital blood was collected before the experiment, of which the steps were the same as the aforesaid steps, to measure serum ALT, AST, ALP, γ-GT and TBA contents.

[4] = test system: rat model of cirrhotic portal hypertension (TAA); test: Liver appearance and liver pathological sections (Masson, HE) in TAA cirrhotic portal hypertension rats; assay type: in vivo
Protocol: as §4, §5
2) A small piece at same part of the liver of the rat was cut and fixed in a 10% formaldehyde solution for tissue section pathology observation. An appropriate size of the liver was cut off, and the blood on the surface was washed off quickly with saline, put into a sterile EP tube, cryopreserved in liquid nitrogen for subsequent experiments.

[5] = test system: rat model of cirrhotic portal hypertension (TAA); test: Portal vein pressure in TAA-induced rat model of cirrhotic portal hypertension; assay type: in vivo, rats; details: i.g.
Protocol: 1) Preparation of saline solution of TAA: 10 g of thioacetamide (TAA) was weighed and dissolved in 100 mL of saline solution, and then filtered through a 0.22 μm sterile membrane filter into a sterile bottle.
2) Preparation of 0.5% CMC-Na suspension of test compound: 400 mg of Compound 1-H, Compound 1-IP, Compound 1-Cl, Compound 1-Mel or Compound 2-0 were weighed and dissolved in 100 mL of 0.5% CMC-Na solution, and shaken by a vortexer for 30 minutes, thereby to obtain 20 mg/Kg (high dose) groups. That is, CMC-Na suspension of 4 mg/mL of Compounds 1-H, 1-IP, 1-Cl, 1-Mel or 2-0. For the middle and low dose groups, drug preparation methods were the same.
as §4
The successfully modeled animals were randomly grouped, 12 rats per group, and 20 rats in the blank control group. Portal hypertension was induced by TAA in rats, and a portal hypertension model was established after 13 days. The test compound was administered once a day for 10 days. […]
Rats were fasted for 12 hours before the experiment, and were anesthetized with 10% chloral hydrate via intraperitoneal injection. […] Stable portal vein pressure was measured. […]

[6] = all administration groups, P<0.05, P<0.01

CC[C@@H]1C2C[C@H](O)CC[C@]2(C)C2CC[C@@]3(C)C(CC[C@@H]3[C@H](C)CCOP3(=O)OCC[C@@H](c4ccnc(Cl)c4)O3)C2[C@@H]1O (some centres unmarked) [Compound 1-Cl]
Bile discharge amount compared with the ursodeoxycholic acid group [1]: significantly higher
Bile flow rate compared with the E2-17α group [1]: significantly increased
Effect on ameliorating intrahepatic cholestasis, promoting bile excretion [1]: significant effect
Serum ALP [2]: 226.65 ± 12.38 U/L
Serum ALT [2]: 77.36 ± 11.42 U/L
Serum AST [2]: 230.89 ± 12.38 U/L
Values of ALT, AST, and ALP (serum) [2]: lower

CC[C@@H]1C2C[C@H](O)CC[C@]2(C)C2CC[C@@]3(C)C(CC[C@@H]3[C@H](C)CCO[P@@]3(=O)OCC[C@@H](c4ccncc4)O3)C2[C@@H]1O (some centres unmarked) [Compound 1-H]
Serum ALT level ([3]; 5 mg/Kg group): decreased
Serum AST level ([3]; 5 mg/Kg group): decreased
Serum ALT level ([3]; 10 mg/Kg group): decreased
Serum AST level ([3]; 10 mg/Kg group): decreased
Serum ALT level ([3]; 20 mg/Kg group): decreased
Serum AST level ([3]; 20 mg/Kg group): decreased
Serum TBA level ([3]; all administration groups, P<0.01): decreased
Serum ALP level (FIG. 10 (C)) [3, 6]: decreased
Serum γ-GT level [3, 6]: decreased
Bile discharge amount compared with the ursodeoxycholic acid group [1]: significantly higher
Bile flow rate compared with the E2-17α group [1]: significantly increased
Effect on ameliorating intrahepatic cholestasis, promoting bile excretion [1]: significant effect
Appearance of liver and spleen (liver cirrhosis nodules) compared with TAA group ([4]; TAA + 5 mg/Kg): milder
Liver pathological sections (Masson, HE): liver fibrosis ([4]; TAA + 5 mg/Kg): symptoms of liver fibrosis were ameliorated
Effect on hyperplasia of liver fibrous tissue and pseudolobule formation (pathological indicators) ([4]; TAA rats, all dose groups): certain improvement effects
Serum ALP [2]: 218.64 ± 18.94 U/L
Serum ALT [2]: 72.36 ± 14.74 U/L
Serum AST [2]: 228.82 ± 17.74 U/L
Values of ALT, AST, and ALP (serum) [2]: lower
Mean percentage change of portal vein pressure (vs mean of TAA group) ([5]; TAA + 5 mg/Kg): > 10%
Mean percentage change of portal vein pressure (vs mean of TAA group) ([5]; TAA + 10 mg/Kg): > 10%
Mean percentage change of portal vein pressure (vs mean of TAA group) ([5]; TAA + 20 mg/Kg): > 10%

CC(C)[C@@H]1C2C[C@H](O)CC[C@]2(C)C2CC[C@@]3(C)C(CC[C@@H]3[C@H](C)CCOP3(=O)OCC[C@@H](c4ccncc4)O3)C2[C@@H]1O (some centres unmarked) [Compound 1-IP]
Bile flow rate compared with the E2-17α group [1]: significantly increased
Effect on ameliorating intrahepatic cholestasis, promoting bile excretion [1]: significant effect
Serum ALP [2]: 230.92 ± 14.00 U/L
Serum ALT [2]: 87.42 ± 11.72 U/L
Serum AST [2]: 258.83 ± 10.82 U/L
Values of ALT, AST, and ALP (serum) [2]: lower

CC[C@@H]1C2C[C@H](O)CC[C@]2(C)C2CC[C@@]3(C)C(CC[C@@H]3[C@H](C)CCO[P@](=O)(N[C@@H](C)C(=O)COC(C)C)Oc3ccccc3)C2[C@@H]1O (some centres unmarked) [Compound 2-0]
Bile flow rate compared with the E2-17α group [1]: significantly increased
Effect on ameliorating intrahepatic cholestasis, promoting bile excretion [1]: significant effect
Serum ALP [2]: 220.35 ± 12.92 U/L
Serum ALT [2]: 78.64 ± 10.65 U/L
Serum AST [2]: 236.59 ± 13.06 U/L
Values of ALT, AST, and ALP (serum) [2]: lower

C[C@H](CCC(=O)O)[C@H]1CC[C@H]2[C@@H]3[C@@H](O)C[C@@H]4C[C@H](O)CC[C@]4(C)[C@H]3CC[C@]12C [UDCA, ursodeoxycholic acid, reference compound]
Serum ALP [2]: 242.18 ± 12.10 U/L
Serum ALT [2]: 85.55 ± 13.80 U/L
Serum AST [2]: 263.36 ± 15.35 U/L

CC[C@@H]1C2C[C@H](O)CC[C@]2(C)C2CC[C@@]3(C)C(CC[C@@H]3[C@H](C)CCOP3(=O)OC(C)C[C@@H](c4ccncc4)O3)C2[C@@H]1O (some centres unmarked) [Compound 1-Me1]
Bile flow rate compared with the E2-17α group [1]: significantly increased
Effect on ameliorating intrahepatic cholestasis, promoting bile excretion [1]: significant effect
Serum ALP [2]: 235.64 ± 16.26 U/L
Serum ALT [2]: 80.64 ± 13.22 U/L
Serum AST [2]: 252.18 ± 16.59 U/L
Values of ALT, AST, and ALP (serum) [2]: lower
